In test [1] the target is Epidermal growth factor receptor (Homo sapiens, UniProt P00533). The test is described as follows: In Vitro Tyrosine Kinase Enzyme Assay. The procedure: (§1) Protein kinase assays were performed at ambient temperature for 20-40 min (depending on the target) in a final volume of 25 μl according to the following assay reaction recipe: […] of diluted active protein kinase target (~10-50 nM final protein concentration in the assay), 2.5 μl of peptide substrate, 3. μl of kinase assay buffer, 5 μl of compound or 10% DMSO, and 5 μl of 33P-ATP (250 μM stock solution, 0.8 mCi). The assay was initiated by the addition of 33P-ATP and the reaction mixture was incubated at ambient temperature for 20-40 min, depending on the protein kinase target. After the incubation period, the assay was terminated by spotting 10 μl of the reaction mixture onto Multiscreen phosphocellulose P81 plate. The Multiscreen phosphocellulose P81 plate was washed three times for approximately 15 min each in a 1% phosphoric acid solution. The radioactivity on the P81 plate (EMD Millipore Corporation, Billerica, MA) was counted in the presence of scintillation fluid in a Trilux scintillation counter (GMI Inc., Ramsey, MN).

Test [2] deals with Receptor tyrosine-protein kinase erbB-2 (Homo sapiens, UniProt P04626). Put plainly: In Vitro Tyrosine Kinase Enzyme Assay. The procedure:
as §1

This is an account of results in BindingDB's records for doi:10.3109/14756366.2013.765417 (Msa University, 2014).

Usually IC50 stands for the midpoint of a concentration-inhibition curve. Low values mean greater potency in that assay, high ones weaker potency in that assay.

Receptor tyrosine-protein kinase erbB-2, sequence (P04626 whole entry): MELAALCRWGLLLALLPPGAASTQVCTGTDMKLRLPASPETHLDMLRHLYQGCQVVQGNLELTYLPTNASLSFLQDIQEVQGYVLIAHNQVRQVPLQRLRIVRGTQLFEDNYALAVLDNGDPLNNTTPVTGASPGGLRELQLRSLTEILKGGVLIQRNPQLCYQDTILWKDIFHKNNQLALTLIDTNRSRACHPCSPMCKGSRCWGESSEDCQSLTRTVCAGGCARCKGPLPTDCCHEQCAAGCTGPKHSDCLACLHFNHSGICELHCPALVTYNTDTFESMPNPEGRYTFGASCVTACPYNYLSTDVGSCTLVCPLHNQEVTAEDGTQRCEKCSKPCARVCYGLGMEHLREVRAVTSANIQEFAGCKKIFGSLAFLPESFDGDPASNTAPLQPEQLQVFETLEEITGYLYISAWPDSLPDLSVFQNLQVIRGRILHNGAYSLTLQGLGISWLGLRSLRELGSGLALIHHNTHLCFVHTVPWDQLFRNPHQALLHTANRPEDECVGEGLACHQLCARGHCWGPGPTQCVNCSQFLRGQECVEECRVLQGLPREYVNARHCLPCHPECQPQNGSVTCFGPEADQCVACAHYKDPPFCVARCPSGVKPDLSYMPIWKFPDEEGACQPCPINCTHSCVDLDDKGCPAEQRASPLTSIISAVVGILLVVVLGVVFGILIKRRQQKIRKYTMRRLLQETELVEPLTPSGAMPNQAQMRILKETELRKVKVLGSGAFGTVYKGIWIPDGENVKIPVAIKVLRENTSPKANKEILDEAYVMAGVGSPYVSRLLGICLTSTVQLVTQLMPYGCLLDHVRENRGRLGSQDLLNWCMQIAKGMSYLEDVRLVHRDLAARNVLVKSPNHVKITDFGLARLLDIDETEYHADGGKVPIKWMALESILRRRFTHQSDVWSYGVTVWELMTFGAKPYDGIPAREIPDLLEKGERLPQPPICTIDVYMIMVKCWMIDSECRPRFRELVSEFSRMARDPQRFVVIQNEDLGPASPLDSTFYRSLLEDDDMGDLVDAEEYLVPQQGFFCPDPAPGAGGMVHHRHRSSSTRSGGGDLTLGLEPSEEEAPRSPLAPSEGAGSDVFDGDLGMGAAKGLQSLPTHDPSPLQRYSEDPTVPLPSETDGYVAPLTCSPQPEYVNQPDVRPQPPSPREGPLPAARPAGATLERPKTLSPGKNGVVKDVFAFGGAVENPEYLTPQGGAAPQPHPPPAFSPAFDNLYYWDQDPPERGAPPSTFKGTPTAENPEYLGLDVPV
Epidermal growth factor receptor, sequence (P00533 whole entry): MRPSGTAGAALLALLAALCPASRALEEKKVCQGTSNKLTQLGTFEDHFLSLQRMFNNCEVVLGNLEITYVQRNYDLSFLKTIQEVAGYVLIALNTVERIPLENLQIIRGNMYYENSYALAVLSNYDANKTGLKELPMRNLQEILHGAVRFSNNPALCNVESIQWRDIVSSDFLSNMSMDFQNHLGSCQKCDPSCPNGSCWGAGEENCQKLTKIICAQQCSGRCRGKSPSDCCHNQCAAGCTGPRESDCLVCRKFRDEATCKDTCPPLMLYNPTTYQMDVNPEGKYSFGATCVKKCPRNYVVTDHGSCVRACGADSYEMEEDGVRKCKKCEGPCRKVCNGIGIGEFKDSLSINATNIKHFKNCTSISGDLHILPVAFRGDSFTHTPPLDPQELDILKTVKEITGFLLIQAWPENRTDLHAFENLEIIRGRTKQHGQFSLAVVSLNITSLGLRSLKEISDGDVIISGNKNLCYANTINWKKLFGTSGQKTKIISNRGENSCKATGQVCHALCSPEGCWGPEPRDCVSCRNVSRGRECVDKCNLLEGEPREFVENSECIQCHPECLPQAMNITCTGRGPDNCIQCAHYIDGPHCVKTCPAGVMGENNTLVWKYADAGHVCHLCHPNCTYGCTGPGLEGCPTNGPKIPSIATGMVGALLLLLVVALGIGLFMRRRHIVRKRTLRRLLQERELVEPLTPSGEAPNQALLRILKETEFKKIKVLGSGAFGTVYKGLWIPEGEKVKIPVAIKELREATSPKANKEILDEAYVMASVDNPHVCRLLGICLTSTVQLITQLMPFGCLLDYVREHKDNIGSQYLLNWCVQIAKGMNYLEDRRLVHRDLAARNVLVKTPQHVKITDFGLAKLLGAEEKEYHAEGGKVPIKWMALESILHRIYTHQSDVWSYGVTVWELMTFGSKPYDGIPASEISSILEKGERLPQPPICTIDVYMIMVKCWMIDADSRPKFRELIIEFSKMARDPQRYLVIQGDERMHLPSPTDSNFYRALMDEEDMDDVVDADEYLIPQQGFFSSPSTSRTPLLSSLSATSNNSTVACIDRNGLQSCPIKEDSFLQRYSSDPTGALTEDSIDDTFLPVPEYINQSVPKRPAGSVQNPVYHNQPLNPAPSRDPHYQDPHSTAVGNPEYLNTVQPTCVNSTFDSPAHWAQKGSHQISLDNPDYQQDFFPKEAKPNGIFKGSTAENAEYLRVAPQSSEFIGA

Regarding `COc1cc2ncnc(Nc3ccc(C(=O)/C=C/c4ccc(Cl)cc4)cc3)c2cc1OC` [(E)-3-(4-Chlorophenyl)-1-{4-[(6,7-dimethoxyquinazolin-4-yl)amino]phenyl}prop-2-en-1-one], the IC50 in test [1] amounted to 2.58 µM; in test [2], 98.8 µM.
In the same order, the values of `N#Cc1c(-c2ccc(F)cc2)cc(-c2ccc(Nc3ncnc4ccccc34)cc2)[nH]c1=N` [HER2/EGFR dual kinase inhibitor, 5d] are 2.09 µM and 3.98 µM.
In the same order, the values of `COc1cc2ncnc(Nc3ccc(-c4cc(-c5ccc(Br)cc5)c(C#N)c(=N)[nH]4)cc3)c2cc1OC` [HER2/EGFR dual kinase inhibitor, 5e] are 1.93 µM and 1.04 µM.
